SMILES strings stand for the structures. Read-outs that look alike come from different tables or passages of the source.

The values below come from patent publication US10836763B2, “5 to 7 membered heterocyclic amides as JAK inhibitors” (priority 2018, dated 2020).

For this experiment, the system named is GM-CSF stimulated STAT5 phosphorylation in CD14+ monocytes. The experiment is described as follows: Cellular JAK potency assay: inhibition of GM-CSF-induced pSTAT5. The class given is cell-based. To be noted: Homo sapiens, Monocyte, 0.25 h, read-out: pIC50, inhibition of GM-CSF-induced pSTAT5 (converted). On the procedure: Assay 15: Cellular JAK Potency Assay: Inhibition of GM-CSF-Induced pSTAT5
The potency of test compounds for inhibition of granulocyte-macrophage colony-stimulating factor (GM-CSF) stimulated STAT5 phosphorylation was measured in CD14-positive (CD14+) monocytes derived from human whole blood (Stanford Blood Center) using flow cytometry. Because GM-CSF signals through JAK, this assay provides a measure of JAK cellular potency.
Monocytes were identified using a fluorescein isothiocyanate (FITC) conjugated anti-CD14 antibody (Clone RM052, Beckman Coulter), and an Alexa Fluor 647 conjugated anti-pSTAT5 antibody (pY694, BD Biosciences) was used to detect STAT5 phosphorylation.
Human peripheral blood mononuclear cells (PBMC) were isolated from human whole blood of healthy donors using a ficoll gradient. […] Cells were washed twice with FACS buffer, and then re-suspended in 1:10 […] Alexa Fluor 647:FACS buffer (100 μL) for 30 min at RT in the dark, washed twice in FACS buffer, and analyzed using a MACSQuant flow cytometer (Miltenyi).
To determine the inhibitory potency of the test compound, the median fluorescent intensity (MFI) of pSTAT5 was measured in CD14+ monocytes. IC50 values were determined from analysis of the inhibition curves of MFI vs compound concentration. Data are expressed as pIC50 (negative decadic logarithm IC50) values.

As for `CCCN1Cc2[nH]c(-c3n[nH]c4cc(-c5ccc(O)cc5CC)ccc34)nc2C[C@H]1C(=O)N1CCN(CCO)CC1` [Compound 1, (S)-(2-(6-(2-ethyl-4-hydroxyphenyl)-1H-indazol-3-yl)-5-propyl-4,5,6,7-tetrahydro-3H-imidazo[4,5-c]pyridin-6-yl)(4-(2-hydroxyethyl)piperazin-1-yl)methanone], the IC50 (CD14+ monocytes, GM-CSF 0.3 ng/mL, 15 min, flow cytometry) is 200 nM.

As for `CCc1cc(O)ccc1-c1ccc2c(-c3nc4c([nH]3)CN(C(C)C)[C@H](C(=O)N3CCCN(C)CC3)C4)n[nH]c2c1` [Compound 4, (S)-(2-(6-(2-ethyl-4-hydroxyphenyl)-1H-indazol-3-yl)-5-isopropyl-4,5,6,7-tetrahydro-3H-imidazo[4,5-c]pyridin-6-yl)(4-methyl-1,4-diazepan-1-yl)methanone], the IC50 is 200 nM.
